Active and inactive are the calls of the source. The calls are words filed in the database; no cut-off is given here.
Columns and labels:
[1] = tested on: 4T1; assay: Upregulation of feedback regulation-mediated PAD4 protein expression in mouse 4T1 cells at 0.5 to 2 uM measured after 48 hrs by immunoblot analysis; type: functional, cell-based; conditions: dose 0.5-2 µM
[2] = tested on: 4T1-Luc; assay: Antitumor activity against mouse orthotopic 4T1-Luc cells implanted in female BALB/c mouse assessed as improvement in animal survival at 10 mg/kg, iv administered via tail vein every 2 days for 9 times for 17 days and measured every 2 days; type: functional, organism-based; conditions: time 17.0 day
[3] = Toxicity in female BALB/c mouse implanted with mouse orthotopic 4T1-Luc cells assessed as effect on serum ALT level at 1 to 10 mg/kg, iv administered via tail vein every 2 days for 9 times for 17 days; type: organism-based; conditions: in vivo, 408 h, dose 1-10 mg/kg, time 17 day
[4] = molecular target: Protein-arginine deiminase type-4 (Homo sapiens, UniProt Q9UM07); assay: Inhibition of PAD4 (unknown origin) using Nalpha-benzoyl-L-arginine ethyl ester as substrate preincubated for 60 mins followed by substrate addition and measured after 90 mins by colorimetric analysis
[5] = Clearance in male Sprague-Dawley rat at 3.5 mg/kg, iv by LC-MS/MS analysis; type: ADME, organism-based; conditions: in vivo
[6] = Cmax in male Sprague-Dawley rat at 3.5 mg/kg, iv by LC-MS/MS analysis; type: ADME, organism-based; conditions: in vivo
[7] = AUC (0 to infinity) in male Sprague-Dawley rat at 3.5 mg/kg, iv by LC-MS/MS analysis; type: ADME, organism-based; conditions: in vivo
[8] = tested on: 4T1-Luc; assay: Antimetastatic activity against mouse orthotopic 4T1-Luc cells implanted in iv dosed female BALB/c mouse assessed as reduction in lung metastasis by measuring reduction in metastatic lung nodules administered via tail vein every 2 days for 9 times for 17 days; type: functional, organism-based; conditions: dose 1-10 mg/kg, time 17.0 day
[9] = molecular target: Protein-arginine deiminase type-4 (Mus musculus) (UniProt Q9Z183); assay: Inhibition of PAD4 in mouse 4T1 cells assessed as reduction in histone H3 citrullination at 2 uM by immunofluorescence analysis; type: cell-based
[10] = molecular target: Protein-arginine deiminase type-4 (Mus musculus) (UniProt Q9Z183); assay: Inhibition of PAD4 in mouse 4T1 cells assessed as reduction in histone H3 citrullination measured after 48 hrs by immunoblot analysis; type: cell-based; conditions: dose 0.5-2 µM
[11] = Toxicity in female BALB/c mouse implanted with mouse orthotopic 4T1-Luc cells assessed as morphological changes in heart at 1 to 10 mg/kg, iv administered via tail vein every 2 days for 9 times for 17 days by H and E staining based analysis; type: organism-based; conditions: in vivo, 408 h, dose 1-10 mg/kg, time 17 day
[12] = tested on: Mus musculus; assay: In vivo inhibition of PAD4 in female BALB/c mouse implanted with mouse orthotopic 4T1-Luc cells assessed as inhibition of histone H3 citrullination in tumor at 10 mg/kg, iv administered via tail vein every 2 days for 9 times for 17 days by immunohistochemical staining based analysis; type: functional, organism-based; conditions: time 17.0 day
[13] = Toxicity in female BALB/c mouse implanted with mouse orthotopic 4T1-Luc cells assessed as morphological changes in spleen at 1 to 10 mg/kg, iv administered via tail vein every 2 days for 9 times for 17 days by H and E staining based analysis; type: organism-based; conditions: in vivo, 408 h, dose 1-10 mg/kg, time 17 day
[14] = tested on: MDA-MB-468; assay: Antiproliferative activity against human MDA-MB-468 cells assessed as inhibition of cell growth incubated for 48 hrs by MTT assay; type: functional, cell-based; conditions: MDA-MB-468, 48 h
[15] = molecular target: Protein-arginine deiminase type-4 (Mus musculus) (UniProt Q9Z183); assay: Inhibition of PAD4 in BALB/c mouse bone marrow neutrophils assessed as reduction in neutrophil extracellular traps formation at 2 uM preincubated for 2 hrs followed by calcium ionophore A23187 addition and measured after 2 hrs by Hoechst 33342/Ly6G staining based laser confocal microscopic analysis; type: tissue-based; conditions: time 4.0 hrs
[16] = tested on: Mus musculus; assay: Induction of tumor microenvironment in female BALB/c mouse implanted with mouse orthotopic 4T1-Luc cells assessed as increase in proportion of MHC-II-positive tumor-associated neutrophils at 1 to 10 mg/kg, iv administered via tail vein every 2 days for 9 times for 17 days by single-cell mass spectrometry flow cytometry analysis; type: functional, organism-based; conditions: dose 1-10 mg/kg, time 17.0 day
[17] = Tmax in male Sprague-Dawley rat at 3.5 mg/kg, iv by LC-MS/MS analysis; type: ADME, organism-based; conditions: in vivo
[18] = tested on: 4T1; assay: Antimetastatic activity in starved mouse 4T1 cells assessed as inhibition of cell migration by measuring reduction in wound closure rate incubated for 24 hrs by scratch wound healing assay; type: functional, cell-based; conditions: dose 0.5-2 µM

Chain of Protein-arginine deiminase type-4 (Mus musculus) (Q9Z183 whole entry): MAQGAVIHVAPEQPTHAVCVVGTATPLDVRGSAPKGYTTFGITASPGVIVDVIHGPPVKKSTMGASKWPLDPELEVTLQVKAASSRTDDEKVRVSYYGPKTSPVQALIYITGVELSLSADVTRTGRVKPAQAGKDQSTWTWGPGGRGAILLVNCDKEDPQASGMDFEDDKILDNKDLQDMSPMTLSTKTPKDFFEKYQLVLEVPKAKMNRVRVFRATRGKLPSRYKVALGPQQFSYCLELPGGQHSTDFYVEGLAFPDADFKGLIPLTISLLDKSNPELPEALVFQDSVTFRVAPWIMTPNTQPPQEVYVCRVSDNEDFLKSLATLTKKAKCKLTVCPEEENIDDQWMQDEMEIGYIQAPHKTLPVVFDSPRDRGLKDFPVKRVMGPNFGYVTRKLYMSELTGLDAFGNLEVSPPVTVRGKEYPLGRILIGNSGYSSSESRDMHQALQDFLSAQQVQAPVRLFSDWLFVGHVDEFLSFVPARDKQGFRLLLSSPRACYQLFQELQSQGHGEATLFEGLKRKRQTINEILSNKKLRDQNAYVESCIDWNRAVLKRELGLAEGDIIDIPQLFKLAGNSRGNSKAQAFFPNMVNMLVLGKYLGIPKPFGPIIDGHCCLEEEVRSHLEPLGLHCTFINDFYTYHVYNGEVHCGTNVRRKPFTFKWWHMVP
Chain of Protein-arginine deiminase type-4 (Q9UM07 whole entry): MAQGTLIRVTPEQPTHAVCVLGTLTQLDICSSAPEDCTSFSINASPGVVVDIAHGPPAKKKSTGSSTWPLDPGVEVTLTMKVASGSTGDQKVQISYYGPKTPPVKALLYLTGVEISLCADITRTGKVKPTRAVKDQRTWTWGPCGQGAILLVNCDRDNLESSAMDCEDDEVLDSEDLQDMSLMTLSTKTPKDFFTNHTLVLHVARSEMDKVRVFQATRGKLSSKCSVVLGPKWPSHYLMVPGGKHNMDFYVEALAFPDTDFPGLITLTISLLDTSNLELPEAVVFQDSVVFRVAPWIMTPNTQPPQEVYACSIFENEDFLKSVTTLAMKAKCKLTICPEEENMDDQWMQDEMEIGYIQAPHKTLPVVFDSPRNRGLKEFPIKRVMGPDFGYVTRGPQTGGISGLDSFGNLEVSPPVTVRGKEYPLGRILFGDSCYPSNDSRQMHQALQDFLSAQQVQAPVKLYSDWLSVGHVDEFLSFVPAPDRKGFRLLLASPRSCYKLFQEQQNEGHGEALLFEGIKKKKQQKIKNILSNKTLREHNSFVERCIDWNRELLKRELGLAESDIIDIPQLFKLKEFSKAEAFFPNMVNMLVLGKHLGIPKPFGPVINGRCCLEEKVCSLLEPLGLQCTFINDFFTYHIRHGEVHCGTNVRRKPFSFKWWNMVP

- IC50 [4]: 0.79 µM
- CL [5]: 105.24 L/h/kg
- Cmax [6]: 0.29771 µg/mL
- AUC [7]: 17.34655 µg·h/mL
- inhibition [9]: Active
- inhibition [10]: Dose-Dependent Effect
- IC50 [14]: 2.34 µM
- inhibition [15]: Active
- Tmax [17]: 4.8 min
SMILES: N=C(CCl)NCCC[C@H](NC(=O)c1cc2c([nH]c3ccccc32)c(-c2ccccc2)n1)C(=O)NCc1ccccc1
- Activity [1]: Active
- Activity [2]: Active
- Activity [3]: Non-Toxic
- Activity [8]: Dose-Dependent Effect
- Activity [11]: Non-Toxic
- inhibition [12]: Active
- Activity [13]: Non-Toxic
- Activity [16]: Active
- Activity [18]: Dose-Dependent Effect

Source: ChEMBL document CHEMBL5506043, “A β-Carboline Derivate PAD4 Inhibitor Reshapes Neutrophil Phenotype and Improves the Tumor Immune Microenvironment against Triple-Negative Breast Cancer” (J Med Chem, 2024)
